Values joined by “and” are separate entries in the source; they are usually repeats but may differ in a detail not shown here. Equal entries are not always repeated.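 Tested at 5 concentrations; 48 h exposure; 96-well plates; endpoints linearly interpolated, else capped at highest concentration. GI50 = concentration required for 50% inhibition of growth. TGI: concentration producing complete growth inhibition.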
Key:
Assay in all cases: NCI-60 cell line screen, 48 h
[1] = tested on: SNB-19 CNS
[2] = tested on: OVCAR-3 ovarian
[3] = tested on: U251 CNS
[4] = tested on: UACC-257 melanoma
[5] = tested on: HL-60(TB) leukemia
[6] = tested on: SK-OV-3 ovarian
[7] = tested on: UACC-62 melanoma
[8] = tested on: NCI-H522 lung
[9] = tested on: SF-539 CNS
[10] = tested on: HS 578T breast

Row | Structure (SMILES) | GI50 [1] | TGI [1] | GI50 [2] | TGI [2] | GI50 [3] | TGI [3] | GI50 [4] | TGI [4] | GI50 [5] [µM] | TGI [5] | GI50 [6] | TGI [6] | GI50 [7] | TGI [7] | GI50 [8] | TGI [8] | GI50 [9] [µM] | GI50 [10] | TGI [10] | TGI [9]
1 | COc1cccc(Cn2cc3c(c2)-c2oncc2CC3)c1 | 0.543 µM | > 100 µM | 0.267 µM | 0.7 µM | 0.386 µM | 35.8 µM | 4.13 µM | > 79.7 µM | 0.247 | 0.762 µM | 0.361 µM | 6.03 µM | 0.662 µM | > 88.8 µM | 0.326 µM | 1.89 µM | 0.266 | 0.249 µM | 0.886 µM | –
2 | CCCCCC(=O)OCC(=O)O[C@@H]1C[C@]2(C(C)C)O[C@@]1(C)[C@@H]1CC[C@@H](C)[C@H]1[C@@H]2OC(=O)/C=C/c1ccccc1 | > 75.3 µM | > 100 µM | > 46.6 µM | > 67.3 µM | > 53.1 µM | > 100 µM | > 55.7 µM | > 89.2 µM | > 53.2 | > 80.3 µM | > 85.2 µM | > 100 µM | > 53.8 µM | > 100 µM | 38.2 µM | > 76.5 µM | > 51.3 | – | 0.0315 µM | > 76.2 µM
3 | O=C1C=CN(C2OC(CO)C(O)C2O)C(=O)C1 (stereo not drawn) | > 625 µM and 819 µM | > 2500 µM | – | > 1870 µM | 298 µM and 289 µM | 625 µM and > 2500 µM | – | > 1940 µM | 6.25 | 625 µM and > 2500 µM | 580 µM | 625 µM and > 2320 µM | 33.3 µM | 625 µM and > 1840 µM | > 625 µM and 518 µM | > 2320 µM | 146 | – | > 747 µM | 625 µM and 1800 µM
4 | CC12CCc3ccccc3C1=Nc1ccccc12 (stereo not drawn) | – | > 100 µM | – | 66.5 µM | – | > 100 µM | – | > 100 µM | – | 76.6 µM | – | > 100 µM | – | > 100 µM | – | > 100 µM | – | – | 46.7 µM | 78.5 µM
5 | O=C(Nc1cccc(C(F)(F)F)c1)c1cccc(NC2=C(Cl)C(=O)N(Cc3ccccc3)C2=O)c1 | 36.8 µM | > 100 µM | 8 µM | > 100 µM | 6.17 µM | > 100 µM | 12.4 µM | 38.5 µM | 5.36 | 28.7 µM | 79.1 µM | > 100 µM | 12.1 µM | 29.9 µM | 4.88 µM | 23.5 µM | 26 | 43.8 µM | > 100 µM | 62.7 µM
6 | CCOC(=O)CNC(=O)CCCn1c(=O)c2c3ccccc3n(C)c2n2nnc(-c3ccccc3)c12 | 5.83 µM | 22.7 µM | 12.5 µM | 48.8 µM | 4.14 µM | 14.6 µM | > 50 µM | > 50 µM | 20.6 | > 50 µM | 6.7 µM | 44 µM | 7.2 µM | 21.8 µM | 6.49 µM | 19.9 µM | 4.3 | 4.51 µM | > 50 µM | 11.6 µM
7 | CCOC(=O)N1C/C(=C/c2ccc(OC)cc2)C(=O)/C(=C/c2ccc(OC)cc2)C1 | 3.87 µM | > 35 µM | 2.75 µM | 7.81 µM | 1.74 µM | 3.54 µM | 2.88 µM | 11.4 µM | 3.02 | > 25.4 µM | 3.63 µM | 16.6 µM | 1.92 µM | 5.4 µM | 2.91 µM | 11.1 µM | 1.81 | 2.85 µM | > 100 µM | 3.7 µM
8 | NC(N)=N/N=C/c1cccc(Cl)c1Cl | 3.32 µM | 11.8 µM | 4.55 µM | 14.9 µM | 3.4 µM | 13.2 µM | 6.26 µM | 20.6 µM | 3.46 | 8.16 µM | 7.06 µM | 20 µM | 1.85 µM | 4.96 µM | 3.16 µM | 13.6 µM | 15.6 | 12.2 µM | 34.9 µM | 31.2 µM
9 | Oc1ccc(Br)cc1/C=N/NC(=S)NC12CC3CC(CC(C3)C1)C2 | 2.87 µM | 12.4 µM | 1.67 µM | 3.71 µM | 1.32 µM | 2.71 µM | 2.11 µM | 6.96 µM | 2.52 | 6.5 µM | 3.54 µM | 11.9 µM | 2.37 µM | 7.83 µM | 4.78 µM | 16.1 µM | 3.19 | 1.99 µM | 6.69 µM | 11.3 µM
10 | BrC(Br)(Br)c1cnc2ccccc2n1 | 3.33 µM | 16.1 µM | 1.5 µM | 3.04 µM | 1.3 µM | 3.17 µM | 2.02 µM | 6.48 µM | 1.97 | 4.16 µM | 3.38 µM | 13.6 µM | 2.02 µM | 6.6 µM | 0.544 µM | 1.28 µM | 2.21 | 2.47 µM | 7 µM | 4.86 µM
11 | CC1CCC2C(C)C3C(CC4C5CC=C6CC(OC7OC(CO)C(O)C(OC8OC(CO)C(O)C(O)C8O)C7OC7OC(C)C(O)C(O)C7O)CCC6(C)C5CCC43C)N2C1 (stereo not drawn) | > 2.5 µg/mL | 23.8 µM and > 2.5 µg/mL | > 2.5 µg/mL | 31.7 µM and > 2.5 µg/mL | > 2.5 µg/mL | 31.1 µM and > 2.5 µg/mL | > 2.5 µg/mL | 33.2 µM and > 2.5 µg/mL | – | 25.4 µM | > 2.5 µg/mL | 29.6 µM and > 2.5 µg/mL | > 2.5 µg/mL | 27.7 µM and > 2.5 µg/mL | > 2.5 µg/mL | 35.2 µM and > 2.5 µg/mL | – | > 2.5 µg/mL | 32.6 µM and > 2.5 µg/mL | 23.8 µM
12 | O=C(O)c1ccc(-c2ccc(C(=O)O)cc2I)c(I)c1 | > 100 µM | > 100 µM | > 100 µM | > 100 µM | > 100 µM | > 100 µM | > 100 µM | > 100 µM | > 100 | > 100 µM | > 100 µM | > 100 µM | > 100 µM | > 100 µM | > 100 µM | > 100 µM | > 100 | > 100 µM | > 100 µM | > 100 µM
13 | Cc1c2ncccc2nc2[nH]c3ccc(OCCN(C)C)cc3c12 | 2.8 µM | 26.7 µM | 3.62 µM | 19.7 µM | 2.68 µM | 17.3 µM | 10.4 µM | 28.5 µM | 3.53 | 16.5 µM | 2.3 µM | 17.5 µM | 14.3 µM | 39.3 µM | 2.41 µM | 15.9 µM | 2.58 | 3.77 µM | 33.7 µM | 13.9 µM
